In ChEMBL document CHEMBL2151021, “Novel amide- and sulfonamide-based aromatic ethanolamines: effects of various substituents on the inhibition of acid and neutral ceramidases” (Bioorg Med Chem, 2012) one finds inhibition, Activity and IC50 data, which are given here for 25 compounds.

The IC50 is the concentration at which inhibition is half-maximal.

Molecules are shown by their SMILES. The source made the active and inactive calls. The rule behind the calls is not given here.

In assay [1] the target is T1, Acid ceramidase (Homo sapiens) (UniProt Q13510).
T1 sequence (whole entry): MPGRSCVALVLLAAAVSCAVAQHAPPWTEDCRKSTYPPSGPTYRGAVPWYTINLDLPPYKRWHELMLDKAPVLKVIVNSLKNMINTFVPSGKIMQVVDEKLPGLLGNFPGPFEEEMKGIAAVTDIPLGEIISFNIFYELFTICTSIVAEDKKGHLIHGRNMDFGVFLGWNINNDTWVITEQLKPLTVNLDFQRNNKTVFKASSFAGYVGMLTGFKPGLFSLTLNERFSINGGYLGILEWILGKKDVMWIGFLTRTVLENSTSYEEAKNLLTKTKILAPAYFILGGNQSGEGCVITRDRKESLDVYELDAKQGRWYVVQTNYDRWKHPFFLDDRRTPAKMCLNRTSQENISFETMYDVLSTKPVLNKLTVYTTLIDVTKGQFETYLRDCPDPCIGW
In words: Inhibition of recombinant human aCDase expressed in Sf9 cells using fluorescently-labeled acyl-NBD-C12-ceramide as substrate at 80 uM after 8 hrs by fluorescence assay.

Assay [2] deals with Neutral ceramidase (Homo sapiens) (UniProt Q9NR71). Briefly: Inhibition of recombinant human nCDase expressed in Sf9 cells using fluorescently-labeled acyl-NBD-C12-ceramide as substrate at 80 uM after 2 hrs by fluorescence assay.
Neutral ceramidase (Homo sapiens), sequence (Q9NR71 whole entry): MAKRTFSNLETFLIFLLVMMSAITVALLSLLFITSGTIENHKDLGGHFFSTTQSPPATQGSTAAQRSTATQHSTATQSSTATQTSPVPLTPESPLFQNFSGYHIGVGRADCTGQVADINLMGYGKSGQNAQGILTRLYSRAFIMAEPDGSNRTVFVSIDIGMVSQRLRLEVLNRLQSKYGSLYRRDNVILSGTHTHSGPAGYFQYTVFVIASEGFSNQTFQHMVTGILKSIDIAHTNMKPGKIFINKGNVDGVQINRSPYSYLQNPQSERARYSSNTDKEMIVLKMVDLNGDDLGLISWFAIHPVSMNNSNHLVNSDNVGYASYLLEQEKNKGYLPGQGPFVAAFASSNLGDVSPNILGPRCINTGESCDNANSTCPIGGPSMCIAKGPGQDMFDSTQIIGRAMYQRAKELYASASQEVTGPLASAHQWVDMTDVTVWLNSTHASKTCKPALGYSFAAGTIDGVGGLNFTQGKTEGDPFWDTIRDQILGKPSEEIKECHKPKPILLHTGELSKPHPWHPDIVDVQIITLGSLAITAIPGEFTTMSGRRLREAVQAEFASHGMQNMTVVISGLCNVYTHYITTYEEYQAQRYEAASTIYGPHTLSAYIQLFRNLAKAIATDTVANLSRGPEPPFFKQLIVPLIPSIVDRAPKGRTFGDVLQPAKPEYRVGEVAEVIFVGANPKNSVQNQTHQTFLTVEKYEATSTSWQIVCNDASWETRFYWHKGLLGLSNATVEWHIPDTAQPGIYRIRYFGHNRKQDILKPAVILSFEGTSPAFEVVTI
Assay [3] shares this target. Briefly: Activity of recombinant human nCDase expressed in Sf9 cells at 300 uM after 2 hrs by fluorescence assay.
Assay [4] deals with T2, Acid ceramidase (Homo sapiens, UniProt Q13510).
T2 sequence (Q13510 whole entry): T1 sequence (whole entry)
In words: Inhibition of aCDase.

Assay [5] has as its target T2, Acid ceramidase. Briefly: Inhibition of aCDase expressed in human HL60 cell extract. The assay is classed as cell-free, HL-60.

As to `CCCCCCCCCCCCS(=O)(=O)NCC(O)c1cccnc1` (racemic), the inhibition entry in assay [1] and in assay [2] was “Active” throughout.

Turning to `CCCCCCCCCCCCCC(=O)NCC(O)c1cccc(OC)c1` (racemic), the inhibition result in assay [1] is “inactive”. Besides, in assay [2], the inhibition result is “Active”.

`CCCCCCCCCCCCS(=O)(=O)NCC(O)c1ccc(C)cc1` (racemic): the inhibition result in assay [1] and in assay [2] was “Active” each time. Besides, the outcome in assay [3] was inactive.

`CCCCCCCCCCCCCC(=O)NCC(O)c1cccnc1` (racemic): the inhibition entry in assay [1] and in assay [2] was “Active” throughout.

For `CCCCCCCCCCCCCC(=O)NCC(O)c1ccc(C)cc1` (racemic), the inhibition result in assay [1] and in assay [2] was “Active” each time. The result in assay [3] was inactive.

For the compound `CCCCCCCCCCCCCC(=O)NCC(O)c1ccncc1` (racemic), the inhibition entry in assay [1] and in assay [2] was “Active” throughout.

Turning to `CCCCCCCCCCCCCC(=O)NCC(O)c1ccc(O)cc1` (racemic), in assay [1], the inhibition entry was “Active”.

In the case of `CCCCCCCCCCCCCC(=O)N[C@H](CO)[C@H](O)c1ccc([N+](=O)[O-])cc1`, the inhibition entry in assay [1] is “Active”. Moreover, the half-inhibitory concentration (IC50) against Acid ceramidase [4] came out at 10 µM.

With `CCCCCCCCCCCCS(=O)(=O)NCC(O)c1ccccc1` (racemic), the inhibition entry in assay [1] and in assay [2] was “Active” throughout.

As to `CCCCCCCCCCCCS(=O)(=O)N[C@H](CO)[C@H](O)c1ccc([N+](=O)[O-])cc1`, the inhibition result in assay [1] is “Active”.

Turning to `CCCCCCCCCCCCCC(=O)NCC(O)c1cccc(C)c1` (racemic), in assay [1], the inhibition entry was “Active”.

On to `CCCCCCCCCCCCCC(=O)NCC(O)c1ccc(C)cc1` (stereo in doubt), for which the inhibition entry in assay [1] and in assay [2] was “Active” each time.

Consider `CCCCCCCCCCCCS(=O)(=O)NCC(O)c1ccncc1` (racemic), for which the inhibition entry in assay [1] and in assay [2] was “Active” in each case.

With `CCCCCCCCCCCCCC(=O)NCC(O)c1cccc(O)c1` (racemic), in assay [1], the inhibition entry is “Active”.

Consider `CCCCCCCCCCCCCC(=O)NCC(O)c1ccc(CCCC)cc1` (racemic), for which the inhibition result in assay [1] was “inactive”.

On to `CCCCCCCCCCCCCC(=O)NCC(=O)c1cccc(C)c1`, for which the inhibition entry in assay [1] and in assay [2] was “Active” throughout.

With `CCCCCCCCCCCCCC(=O)NCC(O)c1ccc(C)cc1` (single isomer, unassigned; (-)), the inhibition result in assay [1] and in assay [2] was “Active” in each case.

Consider `CCCCCCCCCCCCS(=O)(=O)N[C@H](C)[C@@H](O)c1ccccc1`, for which the inhibition entry in assay [1] and in assay [2] was “Active” each time.

Regarding `CCCCCCCCCCCCCC(=O)NCC(O)c1ccc(OC)cc1` (racemic), the inhibition entry in assay [1] was “inactive”. Besides, the inhibition entry in assay [2] is “Active”.

As for `CCCCCCCCCCCCCC(=O)NCC(O)c1ccc(CCC)cc1` (racemic), in assay [1], the inhibition entry was “Active”. Also, in assay [2], the inhibition result was “inactive”.

On to `CCCCCCCCCCCCCC(=O)NCC(=O)c1ccc(C)cc1`, for which the inhibition result in assay [1] and in assay [2] was “Active” each time.

`CCCCCCCCCCCCCC(=O)N[C@H](C)[C@@H](O)c1ccccc1` gave an IC50 against Acid ceramidase [5] of 1 µM. The inhibition result in assay [1] was “Active”.

Consider `CCCCCCCCCCCCCC(=O)NCC(O)c1ccc(C(C)(C)C)cc1` (racemic), for which the inhibition result in assay [1] is “Active”. In addition, the inhibition result in assay [2] is “inactive”.

`CCCCCCCCCCCCCC(=O)NCC(O)c1ccccc1` (racemic): the inhibition entry in assay [1] is “Active”.

In the case of `CCCCCCCCCCCCCC(=O)NCC(O)c1ccc(CC)cc1` (racemic), the inhibition result in assay [1] is “Active”.
